Assay [1] has as its system Shigella sonnei (ATCC 25931). Kind of assay: microbe, parasite or virus in culture. Here is the method:
(§1) The minimum inhibitory concentration (MIC) is defined as the lowest concentration of an antimicrobial ingredient or agent that is bacteriostatic (prevents the visible growth of bacteria).
(§2) Mueller Hinton broth (MHB) comprising 0.01% v/v acetic acid (Sigma Aldrich; St Louis, Mo.) and 0.2% w/v bovine serum albumin (Sigma Aldrich). Equal concentrations of bacteria were plated in wells of standard tissue culture microplates at a density of 0.5×10^8 CFU ml^−1 in MHB per well. Treatments were equivalent volumes (50 μl) of NK-lysin peptides in concentrations of 0 to 150 μg/ml, or no NK-lysin peptides for control wells. The treated plates were incubated at […] and optical densities were determined for each well at 0 minutes, 1, 2 and 3 hours and after an overnight incubation.

The subject of assay [2] is Salmonella typhimurium (ATCC 14028). In words: microbe, parasite or virus in culture. The note with it: Salmonella enterica. As to the method: as §1, §2
Assay [3] has as its system Streptococcus mutans (isolate). In words: microbe, parasite or virus in culture. As to the method:
as §1, §2

Assay [4] deals with Pseudomonas aeruginosa (ATCC 9027). In words: microbe, parasite or virus in culture. As to the method: as §1, §2
Assay [5] concerns Klebsiella oxytoca (ATCC 49131). Kind of assay: microbe, parasite or virus in culture. Here is the method:
as §1, §2

The test system of assay [6] is Streptococcus pyogenes (ATCC 19615). In words: microbe, parasite or virus in culture. As to the method: as §1, §2
For assay [7], the system named is Klebsiella pneumoniae (patient isolate). Kind of assay: microbe, parasite or virus in culture. As to the method:
as §1, §2

In assay [8] the test system is Escherichia coli (ATCC 11775). Kind of assay: microbe, parasite or virus in culture. The note with it: Escherichia coli, ATCC11775. As to the method: as §1, §2
Assay [9] has as its system gram-positive and gram-negative bacteria. Kind of assay: organism not typed. From the text: The gram-positive bacterial strains utilized were Streptococcus pyogenes (ATCC 19615) and Streptococcus mutans (isolate obtained from a patient at King Abdul-Aziz hospital). The gram-negative bacterial strains used included Salmonella typhimurium (ATCC 14028), Escherichia coli (ATCC 11775), Pseudomonas aeruginosa (ATCC 9027), Klebsiella oxytoca (ATCC 49131), Shigella sonnei (ATCC 25931), and Klebsiella pneumoniae (patient isolate). Tryptic soy broth (TSB) was used to grow all bacterial strain overnight, after which the bacteria were washed using phosphate-buffered saline (PBS, NaCl 8 g/L, KCl 0.2 g/L, Na2HPO4 1.4 g/L, KH2PO4 0.24 g/L), and then diluted in the same buffer with 1/1000 TSB to an OD600 nm of 0.08-0.1 (1×10^8) colony-forming units (CFU)/ml, which was determined after performing retrospective plate counts on tryptic soy agar. Unless otherwise noted, the experiments in the following examples employed this inoculum preparation apart from when minimum inhibitory and bactericidal concentrations were determined, which employed cells in Muller Hinton broth. […]
Mueller Hinton broth (MHB) comprising 0.01% v/v acetic acid (Sigma Aldrich; St Louis, Mo.) and 0.2% w/v bovine serum albumin (Sigma Aldrich). […] The treated plates were incubated at […] and optical densities were determined for each well at 0 minutes, 1, 2 and 3 hours and after an overnight incubation. […]

Assay [10] has as its system S. typhimurium (ATCC 14028). It counts as cell-based, Salmonella typhimurium. As to conditions: discs on MH agar, overnight. As to the method:
Screening of NK-lysin peptides was carried out against gram-negative S. typhimurium (ATCC 14028) bacteria. Overnight cultivation of the bacteria was carried out at a temperature of 3TC. A bacterial suspension was created in 10 mM sodium phosphate buffer pH 7.0 having a density of (2×10^6 CFU ml^−1) and plated on Muller-Hinton (MH) agar plates to inoculate. After the plates were dry, antibiotics discs of various concentrations (0 to 150 μg/ml) of antibiotic or NK-lysin peptides were applied to the surface of the inoculated plates. The plates were cultured overnight at 3TC and observed for restriction of growth by determining the diameter of bacterial-free zones surrounding each disc. Ceftazidime antibiotic was employed as a positive control.

The mark [11] stands for this setting: Pseudomonas aeruginosa, ATCC9027.
Where [12] appears, read: Streptococcus pyogenes, ATCC19615.

In brackets after ≈: the same amount, converted by molar mass.

As to `NC[C@H]1O[C@H](O[C@H]2[C@H](O)[C@@H](O[C@H]3O[C@H](CO)[C@@H](O)[C@H](N)[C@H]3O)[C@H](N)C[C@@H]2N)[C@H](O)[C@@H](O)[C@@H]1O` [Kanamycin, kanamycin, reference compound], the MIC came out at 7.81 ± 0.026 µg/mL (≈ 16.1 µM) in [1] (Sh. sonnei ATCC 25931); 7.8 µg/mL (≈ 16.1 µM) in assay [1] (Shigella sonnei, ATCC25931, Sh. sonnei ATCC 25931); 62.5 µg/mL (≈ 129 µM) in assay [2]; 62.5 ± 0.023 µg/mL (≈ 129 µM) in assay [3] (St. mutans (isolate)); 62.5 µg/mL (≈ 129 µM) in assay [3] (Streptococcus mutans); 62.5 ± 0.00 µg/mL (≈ 129 µM) in assay [4] (P.aeruginosa ATCC 9027). Further, the MIC was determined as 62.5 µg/mL (≈ 129 µM) in assay [4] (setting [11]); 31.25 ± 0.00 µg/mL (≈ 64.5 µM) in assay [5] (K. oxytoca ATCC 49131); 31.2 µg/mL (≈ 64.5 µM) in assay [5] (Klebsiella oxytoca, ATCC49131); 62.5 ± 0.00 µg/mL (≈ 129 µM) in [6] (St. pyogenes ATCC 19615); 62.5 µg/mL (≈ 129 µM) in assay [6] (setting [12]); 31.25 ± 0.00 µg/mL (≈ 64.5 µM) in assay [7] (K.Pneumonia (isolate)). For the same compound, the MIC in [7] (Klebsiella pneumoniae) is 31.2 µg/mL (≈ 64.5 µM); in assay [8] it was 15.62 ± 0.011 µg/mL (≈ 32.2 µM); in assay [9] it was 7.8 to 62.5 µg/mL (≈ 16.1 to 129 µM). Moreover, the MBC in [1] (Shigella sonnei, ATCC25931) was determined as 7.81 ± 0.026 µg/mL (≈ 16.1 µM); in assay [2] it was 62.5 µg/mL (≈ 129 µM); in [3] (Streptococcus mutans), 62.5 ± 0.23 µg/mL (≈ 129 µM); in [4] (setting [11]), 62.5 µg/mL (≈ 129 µM); in assay [5] (Klebsiella oxytoca, ATCC49131) it was 31.2 µg/mL (≈ 64.5 µM); in assay [6] (setting [12]) it was 62.5 µg/mL (≈ 129 µM). Moreover, the MBC in [7] (Klebsiella pneumoniae) was found to be 31.2 µg/mL (≈ 64.5 µM); in assay [8], 15.6 µg/mL (≈ 32.2 µM).

Turning to `CC(C)(O/N=C(\C(=O)N[C@@H]1C(=O)N2C(C(=O)[O-])=C(C[n+]3ccccc3)CS[C@H]12)c1csc(N)n1)C(=O)O` [ceftazidime, reference compound], in assay [10], the clear zone diameter was roughly 21 mm.

Consider gentamicin [reference compound], for which the clear zone diameter in assay [10] was determined as 28 mm.

Source of the values: patent US20220305093A1, “NK-LYSIN PEPTIDE COMPOSITIONS AND METHODS FOR THEIR USE AS ANTIMICROBIAL/ANTIVIRAL AGENTS” (priority 2021, published 2022).
